Results reported in PMC11763264, “Antibacterial and Antifungal Activities of Linear and Cyclic Peptides Containing Arginine, Tryptophan, and Diphenylalanine” (Antibiotics, 2025).
Converted amounts (≈) assume the structure as drawn. Non-standard residues stand in square brackets, D forms with d. Residues, ends and D or L forms follow the SMILES beside them. Dip = N[C@H](C(=O)O)C(c1ccccc1)c1ccccc1

Legend:
Experiment in all cases: microbe, parasite or virus in culture
[1] = tested on: P. aeruginosa (ATCC 27883); assay type: cell-based, Pseudomonas aeruginosa; conditions: ATCC 27883, 24 h
Description: (§1) The antibacterial activity of all ten synthesized linear and cyclic peptides was evaluated against MRSA (ATCC BAA-1556), S. aureus (ATCC 29213), E. faecium (ATCC 700221), S. pneumoniae (ATCC 51938), E. faecalis (ATCC 29212), B. subtilis (ATCC-6633), K. pneumoniae (ATCC BAA-1705), P. aeruginosa (ATCC 27883), and E. coli (ATCC 25922). Meropenem and daptomycin were used as positive controls for this study. Certain peptides are marked as “NT” (not tested) against specific bacterial strains based on initial screening data. […] The MIC was determined by micro-broth dilution protocol, where the minimal concentrations were determined to be in wells with no visible bacterial growth.
(§2) All bacterial experiments were carried out in a laminar flow hood (Labconco, Kansas City, MO, USA). The bacterial strains were cultured following the guidelines set by the Clinical Laboratory Standards Institute (CLSI). Antibacterial assays were performed using a standard microtiter dilution method as described in previous studies. The minimum inhibitory concentration (MIC) refers to the lowest peptide concentration that inhibits bacterial growth in wells with no visible bacterial growth. MIC was determined by micro-broth dilution. Bacteria were cultured overnight in 6 mL of Luria Broth (LB). A stock solution of the peptide was prepared in water and DMSO, and a test compound solution with a concentration of 256 µg/mL was made in LB. Meropenem, with a solubility of 8 mg/mL, was prepared as a stock solution at 4 mg/500 µL. An aliquot of the overnight bacteria culture was diluted in normal saline (NS, 1 mL) until achieving a 0.5 McFarland turbidity (1.5 × 10^8 bacterial cell CFU/mL). A 0.5 McFarland compared solution (60 µL) was added to Mueller Hinton Broth (MH) 8940 µL to generate a 1/150 dilution. A 200 µL test compound solution was added to the first well of a 96-well plate, and the remaining wells (2–12) were filled with 100 µL of MH media using a multi-channel pipette from a sterile reservoir. A concentration of […] of the tested peptides was prepared from a stock solution of the samples for testing in Muller−Hinton broth MH media. Peptides stock solution was dissolved in 5% DMSO in water, and the final concentration of DMSO in the first well of assay plate was 2.5% DMSO/H2O and diluted across the assay plate.
(§3) A 100 µL sample from well 1 was pipetted into well 2, and the solution was mixed thoroughly by pipetting up and down. Next, 100 µL was transferred from well 2 to well 3, followed by thorough mixing. This 2-fold serial dilution process continued through well 11, with no additions made to well 12. The final 100 µL from well 11 was discarded. After completing the serial dilution, each well (1–12) contained 100 µL of solution. The bacterial culture in MH media was vortexed and transferred to a sterile reservoir, from which 100 µL was added to each well using a 12-channel pipette. (Note: The dilutions were further diluted upon adding the bacterial solution; for example, the concentration in well 1 started at […] after the addition of the bacterial culture.) The plates were incubated overnight at 37 °C for 24 h. All experiments were performed in triplicate and repeated twice, with controls consisting of bacteria in MH media and positive controls of daptomycin or meropenem.

[2] = tested on: MRSA (ATCC BAA-1556); assay type: cell-based, Methicillin-Resistant Staphylococcus aureus; conditions: ATCC BAA-1556, 24 h
Description: as §1, §2, §3

[3] = tested on: C. albicans (ATCC 60193); assay type: cell-based, Candida albicans
Description: (§4) The antifungal activity of all ten synthesized linear and cyclic peptides was evaluated against C. albicans (ATCC 60193), C. parapsilosis (ATCC 22019), and A. fumigatus (AF-293). Fluconazole and amphotericin B were used as positive controls for this study. The MIC was determined at concentrations in wells with no visible fungal growth.
(§5) In this study, C. albicans and C. parapsilosis were cultured on Yeast Peptone Dextrose (YPD) agar containing 1% w/v yeast extract, 2% w/v peptone, 2% w/v D-glucose, and 1.5% agar. A single colony from the agar was selected and cultured in Tryptone soy broth supplemented with 0.1% D-glucose, then incubated for 24 h at 37 °C. The cells were washed twice with PBS by centrifugation at 2000 RPM for 5 min. The pellet was resuspended in 5 mL of PBS, diluted in RPMI 1640 with L-glutamine, supplemented with 2% D-glucose, and the pH adjusted using HEPES buffer. The suspension was then incubated for 50 min at 35 °C to achieve a final cell concentration of 10^6 cells/mL.
(§6) Peptide concentrations of 50, 25, 12.5, 6.25, and 3.1 μg/mL were tested in triplicate and repeated twice. Each well of a 96-well plate was inoculated with the prepared inoculum suspension, which was diluted with RPMI media to a final volume of 200 μL per well. The control well received the same inoculum without any compound. The plates were incubated for 24 h at 37 °C. Fungal and microbial growth were visually observed in the control wells, and the minimum inhibitory concentration (MIC) was determined as the lowest concentration at which no growth was detected in the wells. Amphotericin B was used as a standard antifungal drug.

[4] = tested on: K. pneumoniae (ATCC BAA-1705); assay type: cell-based, Klebsiella pneumoniae; conditions: ATCC BAA-1705, 24 h
Description: as §1, §2, §3

[5] = tested on: E. coli (ATCC 25922); assay type: cell-based, Escherichia coli; conditions: ATCC 25922, 24 h
Description: as §1, §2, §3

[6] = tested on: A. fumigatus (Af-293); assay type: cell-based, Aspergillus fumigatus; conditions: RPMI 1640 with 2% D-glucose, HEPES, 10^6 cells/mL, 24 and 48 h at 35 °C, no visible growth, triplicates, repeated twice
Description: as §4
A. fumigatus (Af-293) was cultured on Sabouraud dextrose agar (SDA) (Lot #3431660, Oxoid) for 48–72 h at 35 °C to obtain fresh and mature colonies which reached the proper sporulation then used to prepare the inoculum. The colonies were covered with Phosphate-Buffered Saline (PBS) containing 0.025% Tween-20, scraped from the plate, and carefully collected into a sterile tube. The suspension was centrifuged at 3000 RPM for 5 min after the separation between conidia and hyphae. The supernatant was discarded, and the pellet was resuspended in 5 mL of PBS.
Peptide concentrations of 50, 25, 12.5, 6.25, and 3.1 μg/mL were tested in triplicate. Each well of a 96-well plate was inoculated with the prepared inoculum suspension, which was diluted with RPMI 1640 medium containing L-glutamine, supplemented with 2% D-glucose, and the pH adjusted using HEPES buffer. The plates were incubated for 50 min at 35 °C to achieve a final cell concentration of 10^6 cells/mL. The control wells contained the same inoculum without any compound. The plates were then incubated for 24 and 48 h at 35 °C. Fungal growth was visualized, and the minimum inhibitory concentration (MIC) was determined as the lowest peptide concentration, where no growth was observed.

[7] = tested on: C. parapsilosis (ATCC 22019); assay type: cell-based, Candida parapsilosis
Description: as §4, §5, §6

[8] = tested on: B. subtilis (ATCC-6633); assay type: cell-based, Bacillus subtilis; conditions: ATCC-6633, 24 h
Description: as §1, §2, §3

[9] = tested on: S. pneumoniae (ATCC 51938); assay type: cell-based, Streptococcus pneumoniae; conditions: ATCC 51938, 24 h
Description: as §1, §2, §3

[10] = tested on: E. faecium (ATCC 700221); assay type: cell-based, Enterococcus faecium; conditions: ATCC 700221, 24 h
Description: as §1, §2, §3

[11] = tested on: E. faecalis (ATCC 29212); assay type: cell-based, Enterococcus faecalis; conditions: ATCC 29212, 24 h
Description: as §1, §2, §3

[12] = tested on: S. aureus (ATCC 29213); assay type: cell-based, Staphylococcus aureus; conditions: ATCC 29213, 24 h
Description: as §1, §2, §3

Row | MIC [1] | MIC [2] | MIC ([3]; ATCC 60193, 24 h) | MIC [4] | MIC [5] | MIC ([7]; ATCC 22019, 24 h) | MIC [8] | MIC [9] | MIC [10] | MIC [11] | MIC [12] | MIC ([3]; Candida albicans, ATCC60193, RPMI 1640 with 2% D-glucose, HEPES, 10^6 cells/mL, 24 h at 37 °C, no visible growth, triplicates, repeated twice) | MIC ([7]; Lodderomyces parapsilosis, ATCC22019, RPMI 1640 with 2% D-glucose, HEPES, 10^6 cells/mL, 24 h at 37 °C, no visible growth, triplicates, repeated twice) | Compound | MIC [6] | MIC ([6]; Aspergillus fumigatus)
1 | 25 µM (≈ 46.5 µg/mL) | 3.1 µM (≈ 5.77 µg/mL) | 6.7 µM (≈ 12.5 µg/mL) | 25 µM (≈ 46.5 µg/mL) | 12.5 µM (≈ 23.3 µg/mL) | 6.7 µM (≈ 12.5 µg/mL) |  |  |  |  |  |  |  | N=C(N)NCCC[C@@H]1NC(=O)[C@H](Cc2c[nH]c3ccccc23)NC(=O)[C@H](CCCNC(=N)N)NC(=O)[C@H](C(c2ccccc2)c2ccccc2)NC(=O)[C@H](CCCNC(=N)N)NC(=O)[C@H](C(c2ccccc2)c2ccccc2)NC(=O)[C@H](CCCNC(=N)N)NC(=O)[C@H](C(c2ccccc2)c2ccccc2)NC(=O)[C@H](CCCNC(=N)N)NC(=O)[C@H](C(c2ccccc2)c2ccccc2)NC1=O [[(DipR)4(WR)]] (cyclo([Dip]R[Dip]R[Dip]R[Dip]RWR)) | 1.7 µM (≈ 3.16 µg/mL) | 
2 |  | 1.2 µM (≈ 1.94 µg/mL) |  |  |  |  | 0.3 µM (≈ 0.486 µg/mL) | 4.9 µM (≈ 7.94 µg/mL) | 1.2 µM (≈ 1.94 µg/mL) | 9.87 µM (≈ 16 µg/mL) | 0.62 µM (≈ 1 µg/mL) |  |  | CCCCCCCCCC(=O)N[C@@H](Cc1c[nH]c2ccccc12)C(=O)N[C@H](CC(N)=O)C(=O)N[C@@H](CC(=O)O)C(=O)N[C@@H]1C(=O)NCC(=O)N[C@@H](CCCN)C(=O)N[C@@H](CC(=O)O)C(=O)N[C@H](C)C(=O)N[C@@H](CC(=O)O)C(=O)NCC(=O)N[C@H](CO)C(=O)N[C@@H]([C@H](C)CC(=O)O)C(=O)N[C@@H](CC(=O)c2ccccc2N)C(=O)O[C@@H]1C [Daptomycin, reference compound] |  | 
3 |  |  |  |  |  |  |  |  |  |  |  | 0.42 µM (≈ 0.388 µg/mL) | 0.42 µM (≈ 0.388 µg/mL) | C[C@@H]1[C@H](O)[C@@H](C)/C=C/C=C/C=C/C=C/C=C/C=C/C=C/[C@H](O[C@@H]2O[C@H](C)[C@@H](O)[C@H](N)[C@@H]2O)C[C@@H]2O[C@](O)(C[C@@H](O)C[C@@H](O)[C@H](O)CC[C@@H](O)C[C@@H](O)CC(=O)O[C@H]1C)C[C@H](O)[C@H]2C(=O)O [Amphotericin B, reference compound] |  | 0.84 µM (≈ 0.776 µg/mL)
